Legend:
fungal [1] = assay: Anti-fungal activity, dispersed particle form vs. dissolved in an effective solvent
[2] = cited from earlier work
fungal [3] = settings: cited from earlier work

Cc1ccc(S(=O)(=O)C(I)I)cc1 [diiodomethyl-p-tolylsulfone, Benzene, 1-[(diiodomethyl)sulfonyl]-4-methyl-(9CI)]
activity retained in dispersed particle form vs. dissolved in an effective solvent (fungal [1]): about 100% | water solubility [2]: less than 5 ppm | pH range over which effective (fungal [3]): 2-11 pH
